According to patent US9763996B2, “Polymyxin derivative and uses thereof” (Northern Antibiotics Ltd., priority 2015, dated 2017):
Converted amounts (≈) assume the structure as drawn. “Also recorded” adds a separate entry of the source. Like-named read-outs stand apart in the source and are kept apart here. Blank lines part the entries; values can stand above or below the compound they belong to. Where a SMILES comes first, the peptide text is derived from it. Bridges are numbered along the chain shown (N, C = ends). [ ]: non-standard residue; d: D form. The star is where a group is joined. Octanoyl = CCCCCCCC(=O)*; Dab = NCC[C@H](N)C(=O)O

Tests used:
A. baumannii CMI 417 [1] = conditions: alone; A. baumannii CMI 417 (polymyxin-nonsusceptible)
P. aeruginosa = experiment: Synergy studies with rifampin; format: cell-based, Pseudomonas aeruginosa; conditions: against P. aeruginosa
Method: Synergy studies were performed by using polymyxin derivatives in combination with rifampin, a model compound for such antibacterial agents that the intact outer membrane of Gram-negative bacteria acts as a permeability barrier.

E. coli JMI 109 [2] = conditions: JMI 109
[3] = Toxicokinetics (plasma and urine) in cynomolgus monkeys; conditions: cynomolgus monkey, in vivo; for AUC: plasma
Method: (§1) For seven days, the animals were dosed by intravenous (IV) infusion three times daily (TID) at a dose volume of 10 mL/kg for 1 hour (±10 minutes), 8±0.5 hours apart. The day of initial dose administration was designated study Day 1, with subsequent days consecutively numbered. Days prior to the initial dose administration were consecutively numbered with the final day of acclimation referenced as Day −1.
(§2) The following parameters were evaluated at designed intervals: clinical observations, body weights, clinical pathology (hematology, coagulation, serum chemistry, urinalysis including urine sediments and urine chemistry), toxicokinetics (plasma and urine) and anatomic pathology (kidney). In cases of animals sacrificed on an unscheduled basis, samples were taken on the day of the sacrifice.
Plasma and urine concentrations for toxicokinetic (TK) studies were determined by using liquid chromatograph interfaced with a mass spectrometer after precipitation of proteins. A sample (100 μL) was mixed with internal standard solution in water:formic acid (99:1 v/v; […]). Then, 600 μL of 100:1 acetonitrile:formic acid was added. The plates were centrifuged at 3200 rpm for 5 minutes. Using a Tomtec Quadra96, a 450 μL aliquot was transferred to a new 96-well plate and dried under nitrogen at 40° C. Then, 200 μL of water:methanol:formic acid (85:15:1 1 v/v) was added and the plate sealed for LC-MS/MS injection. LC-MS system consisted of Waters Acquity liquid chromatograph interfaced with a Thermo Scientific TSQ Quantitative triple quadrupole MS with ionization in the positive ion mode. Each sample (20 μL) was injected onto a Waters Acquity BEH Shield RP18 column (2.1×50 mm; 1.7 μm) equilibrated at 50° C. Mobile Phase A was 85:15:1 v/v water:methanol:formic acid. Mobile Phase B was 50:50:1 v/v acetonitrile:methanol:formic acid.
Peak area ratios from the calibration standard responses were regressed using a (1/concentration^2) linear fit for polymyxin B using colistin as the internal standard. For NAB739 and NAB815, peak areas from the calibration standard responses were regressed using a (1/concentration^2) quadratic fit (without the use of an internal standard).
The regression models were chosen based upon the behavior of the analytes across the concentration range used during development.
Toxicokinetic analysis was performed by using WinNonlin Phoenix version 6.3 software (Pharsight, Cary, N.C.). For plasma TK, noncompartmental IV infusion model was used.
In the cynomolgus monkey studies described in Example 3, where the peptides were administered as a 1-hour intravenous infusion three times daily, plasma and urine levels of the peptides were determined.

E. coli JMI 3328 [4] = conditions: JMI 3328
K. pneumoniae ATCC 43816 [5] = conditions: ATCC 43816
[6] = 7-day IV infusion toxicity (nephrotoxicity) study in cynomolgus monkeys
Method: In vivo toxicity and toxicokinetic studies were performed by using cynomolgus monkeys. The laboratory that performed the animal studies is accredited by the Association for Assessment and Accreditation of Laboratory Animal Care (AAALAC), has an Animal Welfare Assurance issued by the Office of Laboratory Animal Welfare (OLAW), is registered with the United States Department of Agriculture (USDA), and has an Institutional Animal Care and Use Committee (IACUC) responsible for compliance with applicable laws and regulations concerning the humane care and use of laboratory animals.
Naïve female cynomolgus monkeys were acclimatized to study room for 28 days during which each animal was implanted with a permanent indwelling femoral catheter to permit continuous intravenous infusions. The animals were allowed surgical recovery period of at least 2 weeks before initiating dosing.
Polymyxin B sulfate was from Sigma-Aldrich (catalogue number P0972, lot number BCBF8382V). On each day of use, appropriate quantities of NAB739, NAB815 or polymyxin B were weighed and dissolved in appropriate volumes of sterile saline to prepare a stock solution for each test article and positive control. A correction factor was used in the stock solution preparation to account for both the purity and sulfate content in each test article. Accordingly, the dose (such as 36 mg/kg/d) refers to the dose of the pure peptide as its free base form, not as its sulfate salt.
The doses were the following: polymyxin B 18 mg/kg/d (Group 1), polymyxin B 24 mg/kg/d (Group 2), NAB739 24 mg/kg/d (Group 3), NAB739 36 mg/kg/d (Group 4), NAB815 24 mg/kg/d (Group 5), NAB815 36 mg/kg/d (Group 6). Three animals were included in each study groups.
as §1, §2
On the day of necropsy, animals were sedated with ketamine, weighed, and anesthetized with an intravenous injection of a commercial pentobarbital and phenytoin solution, followed by exsanguinations.
At necropsy, gross observations and organ weights were recorded, and specific tissues were collected. Histopathology was conducted on sections of kidney stained with hematoxylin and eosin (H&E).
The figures also show Urine N-acetyl-β-D-glucosaminidase/urine creatinine ratio (U-NAG/Crea; FIG. 3) and Urine Gamma Glutamyltransferase/urine creatinine ratio (U-GGT/Crea; FIG. 4), both urine biomarkers for kidney injury, in those animals. S-Crea and U-Crea were measured by using an Olympus Analyzer (OA) and the modified Jaffe method, S-BUN by using OA and urease/L-glutamate dehydrogenase. U-NAG was measured by using OA/enzymatic, and U-GGT by using OA and glutamyl-carboxy-p-nitroanilide IFCC.
The presence of the following nephro-pathological parameters was recorded in each animal: tubular basophilia (re-generation), tubular degeneration/necrosis, infiltration (by mononuclear and/or mixed inflammatory cells), tubular dilatation, and tubular casts.

P. aeruginosa JMI 7445 [7] = conditions: JMI 7445
A. baumannii ATCC 19606 [8] = conditions: ATCC 19606
K. pneumoniae JMI 27072 [9] = conditions: JMI 27072
E. coli ATCC 25922 [10] = conditions: ATCC 25922
K. pneumoniae JMI 27072 [11] = experiment: microbe, parasite or virus in culture; conditions: Klebsiella pneumoniae, JMI27072
E. coli ATCC 25922 [12] = experiment: microbe, parasite or virus in culture; conditions: Escherichia coli, ATCC25922
P. aeruginosa JMI 7445 [13] = experiment: microbe, parasite or virus in culture; conditions: Pseudomonas aeruginosa, JMI7445
E. coli JMI 3328 [14] = experiment: microbe, parasite or virus in culture; conditions: Escherichia coli, JMI3328
P. aeruginosa ATCC 27853 = experiment: MIC assay (CLSI broth microdilution; checkerboard with rifampin); conditions: Pseudomonas aeruginosa, ATCC27853
A. baumannii ATCC 19606 [15] = experiment: microbe, parasite or virus in culture; conditions: Acinetobacter baumannii, ATCC19606
E. coli JMI 109 [16] = experiment: microbe, parasite or virus in culture; conditions: Escherichia coli, JMI109
K. pneumoniae ATCC 43816 [17] = experiment: microbe, parasite or virus in culture; conditions: Klebsiella pneumoniae, ATCC43816
A. baumannii CMI 417 [18] = experiment: microbe, parasite or virus in culture; conditions: Acinetobacter baumannii, CMI417
K. pneumoniae JMI 27068 = experiment: microbe, parasite or virus in culture; conditions: Klebsiella pneumoniae, JMI27068
A. baumannii JMI 48125 = experiment: microbe, parasite or virus in culture; conditions: Acinetobacter baumannii, JMI48125

Structure (SMILES): CCCCCCCC(=O)N[C@H](C(=O)N[C@H](CO)C(=O)N[C@H]1CCNC(=O)[C@H]([C@@H](C)O)NC(=O)[C@H](CCN)NC(=O)[C@H](CCN)NC(=O)[C@H](CC(C)C)NC(=O)[C@@H](Cc2ccccc2)NC(=O)[C@H](CCN)NC1=O)[C@@H](C)O [NAB739, octanoyl-Thr-DSer-[cyclo-α,γDab-αDab-DPhe-Leu-αDab-αDab-Thr]] (Octanoyl-T[dS][Dab][Dab][dF]L[Dab][Dab]T; lactam 3-C)
MIC (A. baumannii CMI 417 [1]): 128 µg/mL (≈ 119 µM)
synergistic activity with rifampin (P. aeruginosa): lacked any notable synergistic activity with rifampin
MIC (E. coli JMI 109 [2]): 32 µg/mL (≈ 29.7 µM)
AUC ([3]; 36 mg/kg/day, AUCs, dosed at 36 mg/kg/d, day 1): 239 µg·h/mL
AUC ([3]; iv, 8 mg/kg, AUCs 0-8 h, after infusion of 8 mg/kg, day 1): 108 µg·h/mL
AUC ([3]; iv, 8 mg/kg, AUCs 0-8 h, after infusion of 8 mg/kg, day 7): 137 µg·h/mL
AUC ([3]; iv, 36 mg/kg/day, AUCs, dosed at 36 mg/kg/d, day 7): 302 µg·h/mL
dose excreted ([3]; female, iv, 36 mg/kg/d, urinary recoveries (0-8 h urine collection), 36 mg/kg/d, day 1, each animal): 15.4%
MIC (E. coli JMI 3328 [4]): 2 µg/mL (≈ 1.86 µM)
MIC (K. pneumoniae ATCC 43816 [5]): 4 µg/mL (≈ 3.72 µM)
kidney injury markers (S-BUN, S-Crea, U-NAG/Crea, U-GGT/Crea) ([6]; 36 mg/kg/d IV TID 7 days): all the four markers were significantly elevated; also recorded: both urine biomarkers were remarkably elevated
unscheduled necropsy / euthanized due to severe nephrotoxic effects ([6]; 36 mg/kg/d IV TID 7 days, 3 animals per group): One animal receiving NAB739 at 36 mg/kg/d had to be euthanized; also recorded: on Day 5 for one animal in the NAB739 group
kidney histopathology findings (grade of nephro-pathological parameters) ([6]; 36 mg/kg/d IV TID, H&E kidney sections, per animal(s)): marked tubular degeneration/necrosis; also recorded: marked presence of tubular casts; also recorded: moderate findings, both in two parameters
MIC (P. aeruginosa JMI 7445 [7]): 4 µg/mL (≈ 3.72 µM)
MIC (A. baumannii ATCC 19606 [8]): 4 µg/mL (≈ 3.72 µM)
MIC (K. pneumoniae JMI 27072 [9]): 2 to 4 µg/mL
MIC (E. coli ATCC 25922 [10]): 2 µg/mL (≈ 1.86 µM)

MIC (K. pneumoniae JMI 27072 [11]): 8 µg/mL (≈ 9.72 µM)
MIC (E. coli ATCC 25922 [12]): 8 µg/mL (≈ 9.72 µM)
MIC (P. aeruginosa JMI 7445 [13]): 32 µg/mL (≈ 38.9 µM)
MIC (E. coli JMI 3328 [14]): 8 µg/mL (≈ 9.72 µM)
MIC (P. aeruginosa ATCC 27853): 32 µg/mL
MIC (A. baumannii ATCC 19606 [15]): 4 µg/mL (≈ 4.86 µM)
MIC (E. coli JMI 109 [16]): 16 µg/mL (≈ 19.4 µM)
MIC (K. pneumoniae ATCC 43816 [17]): 16 µg/mL (≈ 19.4 µM)
MIC (A. baumannii CMI 417 [18]): 4 µg/mL (≈ 4.86 µM)
MIC (K. pneumoniae JMI 27068): 64 µg/mL (≈ 77.8 µM)
MIC (A. baumannii JMI 48125): 4 µg/mL (≈ 4.86 µM)
Structure (SMILES): CO[C@H]1/C=C/O[C@@]2(C)Oc3c(C)c(O)c4c(O)c(c(/C=N/N5CCN(C)CC5)c(O)c4c3C2=O)NC(=O)/C(C)=C\C=C\[C@H](C)[C@H](O)[C@@H](C)[C@@H](O)[C@@H](C)[C@H](OC(C)=O)[C@@H]1C [rifampin]
